Data taken from patent publication US20240161653A1, “IN VITRO MODEL DEVICE FOR PLACENTAL BARRIER” (CFD Research Corporation, priority 2022, published 2024).
Counter-ions that a name gives are not always drawn.

Key:
[1] = test system: intervillous space-trophoblast barrier; experiment: Morphological effects of toxic exposure in the in vitro placenta device; format: cell-based; conditions: injected into maternal channel at 3 μL/min for 4 min, then incubated at 37° C. for 15 min; FIG. 10
Source text: In some embodiments, the in vitro placental model device can be used for studying toxicity of test agents to the placenta. Certain compounds not only induce fetal toxicity upon crossing the placental barrier, but also disrupt the barrier itself. The microfluidic placental barrier model can be used to study response to toxic exposure of test agents. The impact to barrier function can be assessed through permeability comparisons and toxicity (e.g., cytotoxicity, etc.) can be assessed off chip by various methods (e.g., cell lysate luminescence assay, genomic analysis, etc.).
For example, an in vitro placenta device was exposed to trypan blue by injection into the maternal channel at 3 μL/min for 4 min and then incubated at 37° C. for 15 min, similar to protocols in literature^7.8. […] White arrows show barrier degradation, and dark arrows show apoptosis following trypan blue exposure.

[2] = test system: trophoblast channel cells; experiment: Cytotoxicity by adenylate kinase release (luminescence), samples from trophoblast channel; format: cell-based; conditions: luminescence plate reader, FIG. 11
Protocol: Following exposure, FSS was injected into the maternal channel and permeability assayed. Permeability in the devices was 10-fold higher in trypan blue treated devices compared to controls. An additional assay was performed to determine cytotoxicity as it relates to the release of adenylate kinase. A positive control (100% death by lysis buffer) and a negative control (media only) were included for comparison. Samples were taken from the trophoblast channel and placed in a low volume, white walled […] plate for luminescence analysis using a plate reader. […] The increase in AK release in arbitrary luminescence units compares the toxic exposure of trypan blue to positive and negative controls.

[3] = test system: placental barrier of the in vitro placenta device (coculture of Bewo trophoblasts and HUVEC); experiment: Maternal-placental size exclusion permeability assay in the in vitro placenta device; format: in vitro ADME, human; conditions: injected into maternal vascular channel at 0.1 μL/min for 1 hour; PI = ratio of sum ROIs trophoblast to maternal vascular channel; FIG. 9B
Protocol: Again, devices can be placed in the incubator.
In another example, one embodiment of the present invention was used to evaluate maternal-placental size exclusion, where a fluorescein sodium salt (FSS) solution was injected into the maternal vascular channel at 0.1 μL/min for 1 hour. […] PI was expected to decrease as a function of compound molecular weight.

SMILES	morphological effects of exposure at the intervillous space-trophoblast barrier [1]	increase in adenylate kinase release [2] [fold]	increase in average PI compared to 4 kD TRITC-dextran [3] [fold]
Cc1cc(-c2ccc(/N=N/c3c(S(=O)(=O)O)cc4cc(S(=O)(=O)O)cc(N)c4c3O)c(C)c2)ccc1/N=N/c1c(S(=O)(=O)O)cc2cc(S(=O)(=O)O)cc(N)c2c1O [trypan blue]	evidence of barrier degradation (e.g., cell death and detachment) and apoptosis	1.5	–
O=C1OC2(c3ccc(O)cc3Oc3cc(O)ccc32)c2ccccc21 [FSS, fluorescein sodium salt]	–	–	~2
